According to US8673913B2, “SHP-2 phosphatase inhibitor” (Case Western Reserve University, priority 2009, dated 2014):

Legend:
[1] = molecular target: T1, SHP-2 PTP domain GST fusion protein (Homo sapiens, UniProt Q06124); experiment: in vitro protein tyrosine phosphatase assay, SHP-2 (Malachite Green); assay type: biochemical; set-up: SHP-2 PTP domain GST fusion protein purified in house was used as the enzyme; made in house; conditions: for inhibition at 100 µM: compound at 100 μM, read-out: inhibition of SHP-2 enzymatic activity
T1 sequence (Q06124 247-517 limits assumed): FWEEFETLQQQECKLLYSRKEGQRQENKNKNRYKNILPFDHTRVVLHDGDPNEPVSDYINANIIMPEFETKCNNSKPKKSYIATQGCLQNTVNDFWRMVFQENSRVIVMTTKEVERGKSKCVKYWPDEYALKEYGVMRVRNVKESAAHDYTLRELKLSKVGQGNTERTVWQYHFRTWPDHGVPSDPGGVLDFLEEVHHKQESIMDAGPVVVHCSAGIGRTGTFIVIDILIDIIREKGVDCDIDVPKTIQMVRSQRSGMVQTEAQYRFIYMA
Description: (§1) Candidate compounds were screened using the in vitro protein tyrosine phosphatase (PTP) assay kit (Sigma, St. Lois, Mo.). SHP-2 PTP domain GST fusion protein purified in house was used as the enzyme and a phospho-peptide corresponding to the surrounding sequence of pTyr^1146 in the insulin receptor (Thr-Arg-Asp-Ile-Tyr[PO3H2]-Glu-Thr-Asp-Tyr-Tyr) were used as the substrate. The assay determines free phosphate generated by dephosphorylation of the PTP substrate using the Malachite Green reagent. Briefly, 0.5 μg of GST-SHP-2 PTP was incubated in 40 μL assay buffer (25 mM Tris-HCl, PH7.4, 50 mM NaCl, 5 mM DTT, and 2.5 mM EDTA) with test compounds at various concentrations or DMSO at room temperature for 30 min. The PTP substrate was then added to a final concentration of 0.2 mM. The system was incubated at 30° C. for 30 min. Finally, 50 μl of Malachite Green solution was added and OD620 was measured after 5 min. In the phosphatase assays for SHP-1, CD45, TC-PTP, PTP-MEG2 (PTPN9), and LAR (PTPRF), procedures were similar, with the exception that GST-SHP-1, GST-CD45 cytoplasmic domain, GST-TC-PTP, GST-PTP-MEG2 PTP domain, and GST-LAR PTP domain purchased from Biomol International, L.P. (Plymouth Meeting, Pa.) were used instead as the enzymes.
Candidate compounds identified by CADD were screened by the in vitro tyrosine phosphatase assay as described in the Experimental Section. The GST-SHP-2 PTP domain fusion protein was incubated with the compounds at room temperature for 30 min before the phospho-peptide substrate was added to the assay systems, allowing compounds to bind to target sites in SHP-2. Each test compound was dissolved in DMSO. Initial concentration of the test compounds was 100 μM. In the experimental assay, DMSO was included as the negative control and sodium orthovanadate (100 μM), a general non-specific tyrosine phosphatase inhibitor, was used as the positive control. From the 165 commercially available compounds tested, we identified 9 compounds that inhibit SHP-2 catalytic activity with various efficiencies (FIG. 3A). […] The inhibitory effects of the compounds were dose-dependent.

[2] = molecular target: T2, GST-SHP-1 (Homo sapiens, UniProt P29350); experiment: in vitro phosphatase assay, SHP-1; assay type: biochemical; conditions: for functional specificity SHP-2 vs. SHP-1: phosphatase assays at the indicated concentrations
T2 construct: purchased Biomol International, L.P. (Plymouth Meeting, Pa.)
Description: as §1

[3] = molecular target: T3, GST-TC-PTP (Homo sapiens, UniProt P17706); experiment: in vitro phosphatase assay, TC-PTP; assay type: biochemical; conditions: for inhibition of TC-PTP: FIG. 4
T3 construct: purchased Biomol International, L.P. (Plymouth Meeting, Pa.)
T3 sequence (P17706 1-415): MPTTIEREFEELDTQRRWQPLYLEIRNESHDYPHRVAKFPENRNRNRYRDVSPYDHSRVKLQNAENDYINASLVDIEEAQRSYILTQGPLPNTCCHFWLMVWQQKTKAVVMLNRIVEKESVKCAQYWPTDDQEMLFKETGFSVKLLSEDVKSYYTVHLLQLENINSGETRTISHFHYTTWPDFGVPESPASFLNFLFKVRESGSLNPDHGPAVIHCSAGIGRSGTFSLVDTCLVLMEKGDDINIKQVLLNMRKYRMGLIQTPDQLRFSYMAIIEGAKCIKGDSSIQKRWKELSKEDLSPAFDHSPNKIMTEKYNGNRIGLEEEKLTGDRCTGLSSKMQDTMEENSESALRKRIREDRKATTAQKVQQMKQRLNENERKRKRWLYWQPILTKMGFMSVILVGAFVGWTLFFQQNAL
Experimental: as §1, with “SHP-2 PTP domain GST fusion protein purified in house was used as the enzyme and a phospho-peptide corresponding to the surrounding sequence of pTyr^1146 in the insulin receptor (Thr-Arg-Asp-Ile-Tyr[PO3H2]-Glu-Thr-Asp-Tyr-Tyr) were used as the substrate.” left out

[4] = tested on: Ba/F3 cells; experiment: Ba/F3 cell proliferation assay (IL-3, MTS); assay type: cell-based, murine
Experimental: To test the effects of the active compounds on IL-3-induced cellular response, Ba/F3, an IL-3 dependent murine pro-B lymphoma cell line, was used for the assay. Ba/F3 cells were seeded into 96-well plates (2×10^4 cells/well) in the RPMI-1640 medium supplemented with 10% fetal bovine serum (FBS), recombinant mouse IL-3 (1 ng/mL), and test compounds ([…]). Three days later, cell number was determined using the MTS cell proliferation kit (Promega Life Science, Madison, Wis.).
To test the effects of the active compounds on SHP-2-mediated cellular proliferation, Ba/F3, an IL-3 dependent hematopoietic cell line, mouse embryonic fibroblasts (MEFs), and H661 lung cancer cell line with SHP-2 activating mutation N58S were used for the assays. Cells were seeded into 96-well plates (2×10^4 cells/well) in the RPMI-1640 (for Ba/F3 cells) or DMEM (for MEFs and H661 cells) medium supplemented with 10% fetal bovine serum (FBS) and test compounds at various concentrations. For the Ba/F3 cell assay, recombinant mouse IL-3 (1 ng/mL) was included in the culture medium. Two days later, cell number was determined using the MTS cell proliferation kit (Promega Life Science, Madison, Wis.).

T2 sequence (P29350 whole entry): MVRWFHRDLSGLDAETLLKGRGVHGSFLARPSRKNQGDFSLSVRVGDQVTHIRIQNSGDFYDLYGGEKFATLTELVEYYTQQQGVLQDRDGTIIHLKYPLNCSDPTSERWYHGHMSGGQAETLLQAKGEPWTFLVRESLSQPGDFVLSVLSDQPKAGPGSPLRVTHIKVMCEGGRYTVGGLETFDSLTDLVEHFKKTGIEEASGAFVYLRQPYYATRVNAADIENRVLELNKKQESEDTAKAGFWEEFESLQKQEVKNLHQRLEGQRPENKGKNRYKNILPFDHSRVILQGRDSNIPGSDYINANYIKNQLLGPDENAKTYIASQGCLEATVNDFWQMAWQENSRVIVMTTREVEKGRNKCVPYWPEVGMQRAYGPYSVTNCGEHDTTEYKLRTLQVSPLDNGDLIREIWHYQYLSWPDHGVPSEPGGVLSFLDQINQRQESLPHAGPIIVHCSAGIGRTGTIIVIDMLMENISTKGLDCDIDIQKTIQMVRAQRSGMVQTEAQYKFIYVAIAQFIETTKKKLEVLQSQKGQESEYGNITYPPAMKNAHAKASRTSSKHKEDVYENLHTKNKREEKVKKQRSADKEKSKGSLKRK

inhibition at 100 µM [1] [%] | functional specificity SHP-2 vs. SHP-1 [2] | inhibition of TC-PTP [3] | IC50 ([1]; read-out: IC50 SHP2) [µM] | IC50 ([2]; read-out: IC50 SHP1) [µM] | IC50 [3] [µM] | SMILES | IL-3-stimulated cell growth ([4]; 100 or 200 μM, IL-3 1 ng/mL, 72 hours) | acute cytotoxicity [4] | selectivity for SHP-2 compared to other PTPases ([1]; Table 1 and FIG. 10) | SHP-2 mediated proliferative response to IL-3 ([4]; IL-3 1 ng/mL, 48 hours)
55 | selectively inhibited SHP-2 vs. SHP-1 | slight inhibition | – | – | – | NS(=O)(=O)c1ccc(CCNC(=O)c2ccc(Cn3c(=S)[nH]c4ccc(Br)cc4c3=O)cc2)cc1 [#216] | greatly decreased | – | – | –
50 | selectively inhibited SHP-2 vs. SHP-1 | slight inhibition | – | – | – | Cc1cc(C)c2c(c1)[nH]c1nnc(SCC(=O)NCc3cccs3)nc12 [#220] | – | modest acute cytotoxicity | – | –

SMILES | inhibition at 100 µM [1] [%] | functional specificity SHP-2 vs. SHP-1 [2] | inhibition of TC-PTP [3] | IC50 ([1]; read-out: IC50 SHP2) [µM] | IC50 ([2]; read-out: IC50 SHP1) [µM] | IC50 [3] [µM] | IL-3-stimulated cell growth ([4]; 100 or 200 μM, IL-3 1 ng/mL, 72 hours) | acute cytotoxicity [4] | selectivity for SHP-2 compared to other PTPases ([1]; Table 1 and FIG. 10) | SHP-2 mediated proliferative response to IL-3 ([4]; IL-3 1 ng/mL, 48 hours)
Cc1cc(C)c2[nH]c3nc(SCC(=O)Nc4cccc5ccccc45)nnc3c2c1 [#324] | – | high functional specificity for SHP-2 over SHP-1 | – | 13.9 | 37.7 | 39.9 | – | – | selectively inhibits SHP-2 compared to other PTPases | inhibit
